Test results as given in patent US10494402B2, “Peptides that stimulate subcutaneous adipogenesis” (The Regents of the University of California, priority 2012, dated 2019).

Tests used:
[1] = system: rat mesenchymal stem cells; assay: Adipogenesis Assay 1 (IBMX/dexamethasone priming, peptide replaces insulin; Oil Red O or BODIPY); assay type: cell-based; conditions: for Fold adipogenic induction vs. negative control / Specific activity (activity/1000 daltons) / adipogenesis, absorption of Oil Red O at 520 nm, fold increase compared with negative control / adipogenesis, number of fat droplets relative to negative controls (image analysis): Assay 1; for adipogenesis, absorption of Oil Red O at 520 nm, fold increase compared with negative control / adipogenesis, number of fat droplets relative to negative controls (image analysis): rat bone marrow mesenchymal stem cells, n=3; for adipogenesis, absorption of Oil Red O at 520 nm, fold increase compared with negative control: 0.1-25 μg
Protocol: Reagents: (1) 3-isobutyl-1-methylxanthine (IBMX) solution: 0.5M in DMSO; (2) Insulin solution: 10 mg/mL recombinant human insulin; (3) Dexamethasone solution in 10 mM in ethanol; (4) Oil Red O (0.36% in 60% isopropanol) or BODIPY dye (BODIPY 493/503 (4,4-difluoro-1,3,5,7-tetramethyl-4-bora-3a,4a-diaza-s-indacene-8-propionic acid, succinimidyl ester) from Invitrogen at 4-10 μM).
Adipogenesis Initiation Media: mesenchymal stem cell expansion media/0.5 mM IBMX/1 μM dexamethasone. Mesenchymal stem cell expansion media is commercially available from Millipore. The IBMX Solution was diluted 1:1000 and the Dexamethasone Solution was diluted 1:10,000 in expansion media containing antibiotics and antimycotics. The prepared media was stored at 4° C.
Adipogenesis Progression Media for positive control: mesenchymal stem cell expansion media/10 μg/mL insulin. The Insulin Solution was diluted 1:1000 in the expansion media and stored at 4° C.
Experimental Adipogenesis Progression Media: mesenchymal stem cell expansion media/1-100 μg/mL RHAMM antagonist peptides.
Adipogenesis Maintenance Media: mesenchymal stem cell expansion media containing antibiotics and antimycotics.
Negative Control Media: DMEM/10% normal calf serum.
Pre-adipocyte stem cells including bone marrow mesenchymal stem cells and fibroblasts including reticular and papillary dermal fibroblasts were propagated using standard tissue culture methods. Cells were trypsinized to remove the cells from the substratum. The trypsin was neutralized and cells were counted using a hemocytometer. Cells were resuspended at 30,000 cells/mL in expansion media. […] of cell suspension was plated per well of 24-well plate, with several wells left empty for blank well staining.
Cells were incubated for 1-2 days until they reached confluency. Approximately 1.8 mL of media was removed from each well and replaced with 2 mL Adipogenesis Initiation Media. For negative control wells, expansion media only was used at this step and for subsequent media changes. For all media changes, media was replaced as gently as possible to avoid disturbing the monolayer.
Cells were incubated for 48 hours at 37° C., 5% CO2. 2 mL media was removed from each well, and replaced with 2 mL either positive control or experimental Adipogenesis Progression Media per well. Cells were again incubated for 48 hours at 37° C., 5% CO2. 2 mL of media was removed from each well and replaced with 2 mL Adipogenesis Maintenance Media per well. In addition, media was added to the empty wells reserved for blank well staining Cells were incubated for at least 48 hours at 37° C., 5% CO2. Media was replaced every 48-72 hours. Accumulation of intracellular lipid droplets continued for at least 5 days.
For quantification of Oil Red O staining, media was removed and cells were washed twice with PBS, using care to gently add the PBS. 0.5 mL Oil Red O solution was added per well of 24-well plate, including to the wells lacking cells, but containing media. Cells were incubated for 15 minutes at room temperature. The staining solution was then removed and wells were washed three times with 1 mL of phosphate buffered saline (PBS). In some experiments, following removal of the last wash, stained plates were scanned or photographed.
Adipogenesis was quantified using a spectrophotometer or fluorometer. 0.25 mL Dye Extraction Solution (isopropyl alcohol) was added per well, and the plate was set on an orbital shaker or platform rocker for 15-30 minutes. Extracted dye was transferred into a cuvette and absorbance was read in a spectrophotometer at visible range for oil red 0 or transferred to a 96-well plate and quantified in a plate reader.
For quantification of BODIPY dye uptake, media was removed and cells were washed twice with PBS, using care to gently add the PBS. Cells were then fixed in 3% paraformaldehyde, washed in PBS then incubated for 1 hour in the dark with the BODIPY solution, prepared in PBS. […]

Rat skin = assay: Rat dermal skin model of adipogenesis (injection into dermis); assay type: in vivo
Protocol: Examples of the adipogenic effects of RHAMM antagonists (peptide B (SEQ ID NO: 2), peptide P15-1 (SEQ ID NO. 1), and the antibody to peptide B) are summarized in Table 1. Peptide P15-1, peptide B, and a RHAMM antibody were assayed for their effects on pre-adipocyte stem cells in culture and when injected into the dermis of aged rats. Reagents were ranked on a scale of 0-5 with 5 representing the highest possible score and a completely filled in Harvey ball. “2D” refers to two-dimensional tissue culture.
In FIGS. 5A and 5B, data are shown as a ratio of the area (“surface area”) of fat pads expressed as a ratio of experimental/control values.
The 6-mer (KSEVSK; SEQ ID NO: 3) was tested for adipogenic effect in rat skin in vivo. The results of this testing are shown in the photographs in FIG. 10.

[2] = system: human subcutaneous pre-adipocytes; assay: Differentiation of human subcutaneous pre-adipocytes; assay type: cell-based; conditions: for adipogenesis, Oil Red O staining, absence of both insulin and PPARγ agonist: FIGS. 23, 24; for adipogenesis, extracted Oil Red O: experimental cocktail lacked PPARγ agonist and insulin
Description: As noted above, this adipogenic cocktail contained pantothenate, dexamethasone, isobutylmethylxanthine (IBMX), human insulin and a PPARγ agonist. For these experiments, the following conditions were used as negative controls: (1) Preadipocyte Medium only; (2) the adipogenic cocktail without PPARγ agonist (PPARγ-); and (3) the adipogenic cocktail without PPARγ agonist or human insulin.
The positive control for FIG. 21 was the complete adipogenic medium containing both the PPARγ agonist and insulin: The experimental cocktail contained the B peptide or the KSEVSK 6-mer, but lacked PPARγ agonist and insulin. Adipogenesis levels were quantified by measuring extracted Oil Red 0.
The following conditions were used as negative controls: (Ctr no-γ)=monolayers cultured in adipogenic cocktail but without PPARγ agonist, (Ctr no-γ, no-Ins)=monolayers cultured in adipogenic cocktail but without PPARγ agonist or human insulin. To test the adipogenic activity of the KSEVSK 6-mer and B peptides, the human pre-adipocytes were exposed to the above negative controls plus either the KSEVSK 6-mer or the B peptide at concentrations of 5 μg/ml and 20 μg/ml. Statistical analysis were performed compared to negative control. Data presented as mean±standard error (n=3)

[3] = system: human papillary fibroblasts (HPF); assay: Transdifferentiation of primary human dermal fibroblasts, papillary; assay type: cell-based; conditions: 5 μg/ml; peptide replaced insulin
Protocol: The B peptide and the KSEVSK 6-mer were also tested for their adipogenic effect on primary human dermal fibroblasts from the upper (papillary) and lower (reticular) dermal layers. The primary human fibroblasts were obtained from dermatome sections of biopsies from human volunteers. Cells were cultured and exposed to adipogenic medium. In these experiments, the B peptide and the KSEVSK 6-mer replaced insulin as the adipogenic stimulus. The peptides were used at a concentration of 5 μg/ml. Adipogenesis was assessed by Oil Red O staining. […] White arrows show fat droplets.

Substance | Fold adipogenic induction vs. negative control [1] | Specific activity (activity/1000 daltons) [1] | amount at which a maximum adipogenic effect was obtained ([1]; bone marrow mesenchymal stem cells, depending upon the screening assay used (assay 1 or 2)) | adipogenesis, absorption of Oil Red O at 520 nm, fold increase compared with negative control [1] | adipogenesis, number of fat droplets relative to negative controls (image analysis) [1] | fat accumulation (fat pads) (Rat skin; 25-50 μg/injection site) | animals in which reagent was most effective (fat pad surface area, experimental/control) (Rat skin; FIGS. 5A and 5B) | adipogenic potential, In vivo Rat skin (Rat skin; injected into the dermis of aged rats, scale of 0-5, 5 highest) | adipogenesis, Oil Red O staining, absence of both insulin and PPARγ agonist [2] | adipogenesis, extracted Oil Red O [2] | transdifferentiation into adipocytes, Oil Red O staining [3] | specific activity compared among peptide B and 9-, 7-, 6-mer ([1]; calculated from adipogenesis data of assays 1 and 2) | adipogenic activity of truncation fragments ([1]; truncation experiments, assays 1 and 2, FIGS. 7, 8, 9) | fat pad induction in rat skin in vivo (Rat skin; FIG. 10) | adipogenesis, Oil Red O staining, absence of PPARγ agonist ([2]; FIG. 22)
KLKDENSQLKSEVSK [peptide B] | 1.85 | 1.0 activity/1000 daltons | 1 to 5 µg | significantly stimulated adipogenesis as compared to the negative control | significantly stimulated adipogenesis as compared to the negative control | induced significant fat accumulation | most effective in old females | 5 | stimulates adipogenesis | significantly (p<0.05) increased adipogenesis above the negative control levels | had no effect |  |  |  | 
KSEVSK [KSEVSK 6-mer] | 2.83 | 3.76 activity/1000 daltons |  | significantly stimulated adipogenesis as compared to the negative control | significantly stimulated adipogenesis as compared to the negative control |  |  |  | stimulates adipogenesis | significantly (p<0.05) increased adipogenesis above the negative control levels | had no effect | highest specific activity | also found to be adipogenic | able to induce large fat pads, possibly larger than peptide B | stimulates adipogenesis
